# Measured values taken from patent EP0745595A1, “3-(3-Aryloxyphenyl)-1-(substituted methyl)-s-triazine-2,4,6-oxo or thiotrione herbicidal agents” (American Cyanamid Company, priority 1995, dated 1996).
# Assays:
# Type in all cases: in vivo
# SCIRPUS JUNCOIDES = experiment: Preemergence evaluation in the presence of transplanted rice under flooded paddy conditions (Example 43), SCPJU (Bulrush, Japanese); parameters: key: visual rating on a 0-9 scale, compared with control; settings: applied three days after sowing, 25 to 30 days after treatment
# Protocol: (§1) Results of herbicide evaluation are expressed on a rating scale (0-9). The scale is based upon a visual observation of plant stand, vigor, malformation, size, chlorosis and overall plant appearance as compared with a control.
# (§2) In this example, Deluvian paddy soil (Toyokawa paddy soil) is placed in plastic pots, 100cm^2 x 9 cm in depth. Water is added to the level of the soil surface in the pot and the mixture is paddled 3 cm in depth.
# (§3) Pots are then variously sown with monocotyledenous weed seeds and tubers at 0-2 cm in soil depth, as well as transplanted rice plants at the 2.5 leaf stage. The rice plants are transplanted at about 3 cm soil depth. Water is then added to all of the pots to 3 cm deep and kept at a depth of 3 cm for the duration of the test. Test compounds are applied in the manner described in Example 42 three days after transplanting the rice plants and sowing the weed seeds and tubers. The pots are then placed on greenhouse benches and cared for in the conventional manner. Tests are examined at 25 to 30 days after treatment and rated according to the rating system provided in Example 40. The compounds evaluated are reported by compound number given in Example 40.
# [1] = test system: CYPERUS SEROTINUS, ROTTB.; experiment: Preemergence weed control under flooded paddy conditions, CYPSE (Flatsedge); settings: preemergence weeds, rated three to four weeks after treatment
# Method in brief: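 Visual 0-9 rating against untreated control, covering stand, vigor, malformation, size and chlorosis, scored three to four weeks post-treatment in a greenhouse. Application was into 1.5-3 cm flood water over silt loam sown at 0.5 cm. The 50/50 v/v aqueous/acetone doses were about 0.5, 0.25, 0.125 and 0.063 kg/ha.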
# CHENOPODIUM ALBUM, L. [2] = experiment: Preemergence herbicidal evaluation, CHEAL (Lambsquarters, Common); settings: four to five weeks after treatment
# Method in brief: (§4)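 Greenhouse preemergence test; treated soil cups received compound in aqueous acetone (about 0.125 to 0.50 kg/ha) right after sowing and were assessed visually 4-5 weeks later on a 0-9 scale compared with control plants.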
# GALIUM APARINE = experiment: Preemergence herbicidal evaluation, GALAP (Galium); settings: four to five weeks after treatment
# Method in brief: as §4
# […] = Preemergence evaluation in the presence of transplanted rice under flooded paddy conditions (Example 43), MOOVA (Monochoria); settings: applied three days after sowing, 25 to 30 days after treatment
# Protocol: as §1, §2, §3
# CYPERUS DIFFORMIS = experiment: Preemergence evaluation in the presence of transplanted rice under flooded paddy conditions (Example 43), CYPDI (Flatsedge, smallflower); parameters: key: visual rating on a 0-9 scale, compared with control; settings: applied three days after sowing, 25 to 30 days after treatment
# Protocol: as §1, §2, §3
# [3] = test system: ORYZA SATIVA, L. TEBONNET; experiment: Rice tolerance to post-transplant applications under flooded paddy conditions, ORYSAT (Rice, Tebonnet); settings: post-transplant rice, rated three to four weeks after treatment;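 further: applied to flooded soil surface three days after transplanting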
# Method in brief: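 Rated on a visual 0–9 scale against untreated plants 3–4 weeks after application, rice (cv. Tebonnet) tolerance was tested by applying compounds (approx. 0.5–0.063 kg/ha, acetone/water 50/50) to flooded soil three days post-transplant, water kept 1.5–3 cm deep.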
# [4] = test system: ABUTILON THEOPHRASTI, MEDIC.; experiment: Preemergence herbicidal evaluation, ABUTH (Velvetleaf); settings: four to five weeks after treatment
# Method in brief: as §4
# CHENOPODIUM ALBUM, L. [5] = experiment: Postemergence herbicidal evaluation, CHEAL (Lambsquarters, Common); settings: rated four to five weeks after treatment, averaged
# Method in brief: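 Postemergence herbicidal activity on Chenopodium album was tested by spraying two-week-old seedlings grown in jiffy flats with compound in acetone/water (50/50) plus 0.5% TWEEN®20, using a 40 psi nozzle. Four to five weeks after treatment, stand, vigor, malformation, size, chlorosis and overall appearance were scored 0-9 relative to controls, with repeat tests averaged.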
# IPOMOEA SPP. [6] = experiment: Postemergence herbicidal evaluation, IPOSS (Morningglory spp.); settings: rated four to five weeks after treatment, averaged
# Method in brief: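 In this greenhouse postemergence herbicide test on Ipomoea spp. (morningglory), compounds in 50/50 acetone/water with 0.5% TWEEN®20 were sprayed at 40 psi onto seedlings about two weeks old grown in jiffy flats. After four to five weeks, injury was scored on a 0-9 scale covering stand, vigor, malformation, size, chlorosis and overall appearance versus control, with repeat tests averaged.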
# [7] = test system: ABUTILON THEOPHRASTI, MEDIC.; experiment: Postemergence herbicidal evaluation, ABUTH (Velvetleaf); settings: rated four to five weeks after treatment, averaged
# Method in brief: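 This postemergence herbicide test used two-week-old velvetleaf seedlings grown in jiffy flats. Each compound was sprayed at 40 psi as a dispersion in 50/50 acetone/water with 0.5% TWEEN®20 surfactant. Plants then received routine greenhouse care. After four to five weeks, injury was scored visually on a 0-9 scale against a control, and replicate tests were averaged.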
# IPOMOEA SPP. [8] = experiment: Preemergence herbicidal evaluation, IPOSS (Morningglory spp.); settings: four to five weeks after treatment
# Method in brief: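 This preemergence greenhouse test scored herbicidal effect on morningglory planted in pint cups, with seed mixed into potting soil and placed over about one inch of soil. After treatment the cups were watered and kept under conventional care. At four to five weeks, plant stand, vigor, malformation, size, chlorosis and overall appearance were compared with a control and rated 0-9.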
# [9] = test system: ORYZA SATIVA, L. CV. KOSHIHIKARI; experiment: Post-transplant rice evaluation under flooded paddy conditions (Example 43), ORYSAK (Rice, Koshihikari); parameters: key: visual rating on a 0-9 scale, compared with control; settings: applied three days after transplanting rice, 25 to 30 days after treatment
# Protocol: as §1, §2, §3
# ECHINOCHLOA CRUS-GALLI = experiment: Preemergence evaluation in the presence of transplanted rice under flooded paddy conditions (Example 43), ECHCG (Barnyard Grass); parameters: key: visual rating on a 0-9 scale, compared with control; settings: applied three days after sowing, 25 to 30 days after treatment
# Protocol: as §1, §2, §3
# SAGITTARIA PYGMAEA = experiment: Preemergence evaluation in the presence of transplanted rice under flooded paddy conditions (Example 43), SAGPY (Arrowhead (Pygmaea)); parameters: key: visual rating on a 0-9 scale, compared with control; settings: applied three days after sowing, 25 to 30 days after treatment
# Protocol: as §1, §2, §3
smiles,measurement,setting,value
"CCOC(=O)Cn1c(=O)[nH]c(=O)n(-c2cc(Oc3ccc(C(F)(F)F)cc3Cl)ccc2[N+](=O)[O-])c1=O [Compound 5, Ethyl 3-{5-[(2-chloro-α,α,α-trifluoro-p-tolyl)oxy]-2-nitrophenyl}tetrahydro-2,4,6-trioxo-s-triazine-1(2H)-acetate]","Herbicidal effect rating, SCPJU",SCIRPUS JUNCOIDES; 0.032 kg/ha,4.0
same,"Herbicidal effect rating, SCPJU",SCIRPUS JUNCOIDES; 0.063 kg/ha,6.0
same,"Herbicidal effect rating, SCPJU",SCIRPUS JUNCOIDES; 0.125 kg/ha,9.0
same,"Herbicidal effect rating, SCPJU",SCIRPUS JUNCOIDES; 0.250 kg/ha,9.0
same,CYPSE herbicidal rating,[1]; Rate 0.125 kg/ha,9.0
same,CYPSE herbicidal rating,[1]; Rate 0.250 kg/ha,9.0
same,CYPSE herbicidal rating,[1]; Rate 0.500 kg/ha,9.0
same,CHEAL rating,"CHENOPODIUM ALBUM, L. [2]; Rate 0.125 kg/ha",9.0
same,CHEAL rating,"CHENOPODIUM ALBUM, L. [2]; Rate 0.250 kg/ha",9.0
same,CHEAL rating,"CHENOPODIUM ALBUM, L. [2]; Rate 0.500 kg/ha",9.0
same,GALAP rating,GALIUM APARINE; Rate 0.125 kg/ha,9.0
same,GALAP rating,GALIUM APARINE; Rate 0.250 kg/ha,9.0
same,GALAP rating,GALIUM APARINE; Rate 0.500 kg/ha,9.0
same,"Herbicidal effect rating, MOOVA",[…]; 0.032 kg/ha,9.0
same,"Herbicidal effect rating, MOOVA",[…]; 0.063 kg/ha,9.0
same,"Herbicidal effect rating, MOOVA",[…]; 0.125 kg/ha,9.0
same,"Herbicidal effect rating, MOOVA",[…]; 0.250 kg/ha,9.0
same,"Herbicidal effect rating, CYPDI",CYPERUS DIFFORMIS; 0.032 kg/ha,8.0
same,"Herbicidal effect rating, CYPDI",CYPERUS DIFFORMIS; 0.063 kg/ha,9.0
same,"Herbicidal effect rating, CYPDI",CYPERUS DIFFORMIS; 0.125 kg/ha,9.0
same,"Herbicidal effect rating, CYPDI",CYPERUS DIFFORMIS; 0.250 kg/ha,9.0
same,ORYSAT herbicidal rating (rice tolerance),[3]; Rate 0.063 kg/ha,3.0
same,ORYSAT herbicidal rating (rice tolerance),[3]; Rate 0.125 kg/ha,4.3
same,ORYSAT herbicidal rating (rice tolerance),[3]; Rate 0.250 kg/ha,5.0
same,ORYSAT herbicidal rating (rice tolerance),[3]; Rate 0.500 kg/ha,5.3
same,ABUTH rating,[4]; Rate 0.125 kg/ha,9.0
same,ABUTH rating,[4]; Rate 0.250 kg/ha,9.0
same,ABUTH rating,[4]; Rate 0.500 kg/ha,9.0
same,"CHEAL, herbicide rating (0-9)","CHENOPODIUM ALBUM, L. [5]; Rate 0.125 kg/ha",8.0
same,"CHEAL, herbicide rating (0-9)","CHENOPODIUM ALBUM, L. [5]; Rate 0.250 kg/ha",8.0
same,"CHEAL, herbicide rating (0-9)","CHENOPODIUM ALBUM, L. [5]; Rate 0.500 kg/ha",8.0
same,"IPOSS, herbicide rating (0-9)",IPOMOEA SPP. [6]; Rate 0.125 kg/ha,9.0
same,"IPOSS, herbicide rating (0-9)",IPOMOEA SPP. [6]; Rate 0.250 kg/ha,9.0
same,"IPOSS, herbicide rating (0-9)",IPOMOEA SPP. [6]; Rate 0.500 kg/ha,9.0
same,"ABUTH, herbicide rating (0-9)",[7]; Rate 0.125 kg/ha,9.0
same,"ABUTH, herbicide rating (0-9)",[7]; Rate 0.250 kg/ha,9.0
same,"ABUTH, herbicide rating (0-9)",[7]; Rate 0.500 kg/ha,9.0
same,IPOSS rating,IPOMOEA SPP. [8]; Rate 0.125 kg/ha,9.0
same,IPOSS rating,IPOMOEA SPP. [8]; Rate 0.250 kg/ha,9.0
same,IPOSS rating,IPOMOEA SPP. [8]; Rate 0.500 kg/ha,9.0
same,"Herbicidal effect rating, ORYSAK",[9]; 0.032 kg/ha,0.0
same,"Herbicidal effect rating, ORYSAK",[9]; 0.063 kg/ha,0.0
same,"Herbicidal effect rating, ORYSAK",[9]; 0.125 kg/ha,2.0
same,"Herbicidal effect rating, ORYSAK",[9]; 0.250 kg/ha,2.0
same,"Herbicidal effect rating, ECHCG",ECHINOCHLOA CRUS-GALLI; 0.032 kg/ha,8.0
same,"Herbicidal effect rating, ECHCG",ECHINOCHLOA CRUS-GALLI; 0.063 kg/ha,8.0
same,"Herbicidal effect rating, ECHCG",ECHINOCHLOA CRUS-GALLI; 0.125 kg/ha,8.0
same,"Herbicidal effect rating, ECHCG",ECHINOCHLOA CRUS-GALLI; 0.250 kg/ha,9.0
same,"Herbicidal effect rating, SAGPY",SAGITTARIA PYGMAEA; 0.032 kg/ha,1.0
same,"Herbicidal effect rating, SAGPY",SAGITTARIA PYGMAEA; 0.063 kg/ha,3.0
same,"Herbicidal effect rating, SAGPY",SAGITTARIA PYGMAEA; 0.125 kg/ha,9.0
same,"Herbicidal effect rating, SAGPY",SAGITTARIA PYGMAEA; 0.250 kg/ha,8.0
